Assay results reported in PubChem BioAssay AID256 (DTP/NCI, 2004).
Where “and” joins values, the source holds several entries; their conditions need not be identical. Identical values can stand only once. Inconclusive results and toxic doses are left out. The calls were made as follows: active = survival T/C of 150% or more; inactive = T/C below 125% in these data.

Tested on: CD2F1 mice, L1210 leukemia ip, survival T/C
Assay: NCI In Vivo Anticancer Drug Screen. Data for tumor model L1210 Leukemia (intraperitoneal) in CD2F1 (CDF1) mice
Conditions: endpoint: mean survival time, higher = longer survival
How it was run: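 Compound-dosed mice with transplantable tumor versus matched vehicle controls; endpoint ratio T/C reported.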

[1] = dose: 100.0 mg/kg/injection, schedule: Q01DX001 (ip), vehicle: saline with Tween-80
[2] = dose: 200.0 mg/kg/injection, schedule: Q01DX001 (ip), vehicle: saline with Tween-80
[3] = dose: 400.0 mg/kg/injection, schedule: Q01DX001 (ip), vehicle: saline with Tween-80
[4] = dose: 100.0 mg/kg/injection, schedule: Q01DX009 (ip), vehicle: saline with Tween-80
[5] = dose: 100.0 mg/kg/injection, schedule: Q04DX003 (ip), vehicle: saline with Tween-80
[6] = dose: 200.0 mg/kg/injection, schedule: Q01DX009 (ip), vehicle: saline with Tween-80
[7] = dose: 200.0 mg/kg/injection, schedule: Q04DX003 (ip), vehicle: saline with Tween-80
[8] = dose: 400.0 mg/kg/injection, schedule: Q04DX003 (ip), vehicle: saline with Tween-80
[9] = dose: 400.0 mg/kg/injection, schedule: Q01DX009 (ip), vehicle: Klucel (hydroxypropylcellulose) (HPC)
[10] = dose: 400.0 mg/kg/injection, schedule: Q01DX009 (ip), vehicle: saline with Tween-80
[11] = dose: 100.0 mg/kg/injection, schedule: Q01DX009 (ip), vehicle: saline
[12] = dose: 200.0 mg/kg/injection, schedule: Q01DX009 (ip), vehicle: saline
[13] = dose: 400.0 mg/kg/injection, schedule: Q01DX001 (ip), vehicle: other
[14] = dose: 100.0 mg/kg/injection, schedule: Q04DX002 (ip), vehicle: saline with Tween-80
[15] = dose: 200.0 mg/kg/injection, schedule: Q04DX002 (ip), vehicle: saline with Tween-80
[16] = dose: 400.0 mg/kg/injection, schedule: Q04DX002 (ip), vehicle: saline with Tween-80
[17] = dose: 400.0 mg/kg/injection, schedule: Q01DX009 (ip), vehicle: saline
[18] = dose: 100.0 mg/kg/injection, schedule: Q04DX003 (ip), vehicle: saline
[19] = dose: 200.0 mg/kg/injection, schedule: Q04DX003 (ip), vehicle: saline
[20] = dose: 400.0 mg/kg/injection, schedule: Q04DX003 (ip), vehicle: saline

Measured: T/C

CN(C)CCCN=Cc1cc([N+](=O)[O-])ccc1O.CN(C)CCCN=Cc1cc([N+](=O)[O-])ccc1O.[Ni+2]
inactive: dose: 6.25 mg/kg/injection, schedule: Q04DX002 (ip), vehicle: saline with Tween-80 91 % of control | dose: 12.5 mg/kg/injection, schedule: Q04DX002 (ip), vehicle: saline with Tween-80 91 % of control | dose: 50.0 mg/kg/injection, schedule: Q04DX002 (ip), vehicle: saline with Tween-80 93 % of control

COC1=CCC(=Nc2ccccc2)C=C1
inactive: [1] 96 % of control | [2] 102 % of control | [3] 95 % of control

N#C/C(=C1C=C/C(=N\O)C(Cl)=C\1)c1ccccc1
inactive: [4] 103 % of control | [5] 88 % of control | [6] 88 % of control | [7] 93 % of control | [8] 96 % of control

NC(=O)c1ncn(C2OC(CO)C(O)C2O)c1O (stereo not drawn)
inactive: dose: 12.5 mg/kg/injection, schedule: Q01DX009 (ip), vehicle: Klucel (hydroxypropylcellulose) (HPC) 122 % of control | dose: 25.0 mg/kg/injection, schedule: Q01DX009 (ip), vehicle: Klucel (hydroxypropylcellulose) (HPC) 113 % of control and 120 % of control | dose: 200.0 mg/kg/injection, schedule: Q01DX009 (ip), vehicle: Klucel (hydroxypropylcellulose) (HPC) 116 % of control and 106 % of control | [9] 120 % of control and 93 % of control and 110 % of control

CCOC(=O)c1sc(=S)[nH]c1C
inactive: [6] 89 % of control | [10] 87 % of control

C=CCNC1CCS(=O)(=O)C1 (stereo not drawn)
inactive: dose: 50.0 mg/kg/injection, schedule: Q01DX009 (ip), vehicle: saline 104 % of control | [11] 97 % of control | [12] 104 % of control

CCOc1cc(NCCCN)c2nc(OCc3ccccc3)ccc2c1
inactive: dose: 75.0 mg/kg/injection, schedule: Q01DX001 (ip), vehicle: saline 96 % of control

NC(=O)CSc1ccccc1
inactive: dose: 100.0 mg/kg/injection, schedule: Q01DX001 (ip), vehicle: other 101 % of control | dose: 200.0 mg/kg/injection, schedule: Q01DX001 (ip), vehicle: other 101 % of control | [13] 107 % of control

CC(C)=N/N=C(N)/C(N)=N/N=C(C)C
inactive: [14] 103 % of control | [15] 106 % of control | [16] 95 % of control

O=c1cc(O)cnn1C1OC(CO)C(O)C1O (stereo not drawn)
inactive: dose: 25.0 mg/kg/injection, schedule: Q01DX009 (ip), vehicle: water 118 % of control and 110 % of control | dose: 50.0 mg/kg/injection, schedule: Q01DX009 (ip), vehicle: water 114 % of control and 117 % of control and 112 % of control | dose: 100.0 mg/kg/injection, schedule: Q01DX009 (ip), vehicle: water 118 % of control (2×) and 108 % of control | dose: 200.0 mg/kg/injection, schedule: Q01DX009 (ip), vehicle: water 117 % of control and 108 % of control | dose: 400.0 mg/kg/injection, schedule: Q01DX009 (ip), vehicle: water 119 % of control

O=C(C[n+]1ccccc1)CC(O)(C(F)(F)F)C(F)(F)F
inactive: [4] 105 % of control | [6] 103 % of control

O=C(NO)c1cccnc1
inactive: dose: 270.0 mg/kg/injection, schedule: Q01DX009 (ip), vehicle: other 121 % of control | [13] 98 % of control | dose: 600.0 mg/kg/injection, schedule: Q01DX001 (ip), vehicle: other 101 % of control | dose: 800.0 mg/kg/injection, schedule: Q01DX001 (ip), vehicle: other 101 % of control
active: dose: 800.0 mg/kg/injection, schedule: Q01DX009 (ip), vehicle: other 164 % of control

COC(=O)/C=N/NS(=O)(=O)c1cccc(N)c1
inactive: dose: 25.0 mg/kg/injection, schedule: Q04DX003 (ip), vehicle: water 110 % of control | dose: 50.0 mg/kg/injection, schedule: Q04DX003 (ip), vehicle: water 104 % of control | dose: 100.0 mg/kg/injection, schedule: Q04DX003 (ip), vehicle: water 108 % of control | dose: 200.0 mg/kg/injection, schedule: Q04DX003 (ip), vehicle: water 112 % of control

CC1CN(Cc2ccccc2)C1
inactive: dose: 12.5 mg/kg/injection, schedule: Q01DX001 (ip), vehicle: acetone 86 % of control | dose: 25.0 mg/kg/injection, schedule: Q01DX001 (ip), vehicle: acetone 96 % of control | dose: 50.0 mg/kg/injection, schedule: Q01DX001 (ip), vehicle: acetone 94 % of control

O=c1cc(-c2ccccc2)[nH]c(-c2ccccc2)c1
inactive: [1] 100 % of control | [4] 89 % of control | [5] 89 % of control | [2] 88 % of control | [6] 88 % of control | [7] 93 % of control | [3] 89 % of control | [8] 86 % of control

CN=C(NC)S(=O)O
inactive: [11] 97 % of control | [12] 97 % of control | [17] 101 % of control

C=C(Br)CNC(=O)C(C)C
inactive: dose: 5.0 mg/kg/injection, schedule: Q01DX009 (ip), vehicle: saline with Tween-80 98 % of control | dose: 10.0 mg/kg/injection, schedule: Q01DX009 (ip), vehicle: saline with Tween-80 100 % of control | dose: 20.0 mg/kg/injection, schedule: Q01DX009 (ip), vehicle: saline with Tween-80 100 % of control

CCCCC(CC)COP(=O)(CC(CC)CCCC)OCC(CC)CCCC (stereo not drawn)
inactive: [18] 86 % of control | [19] 94 % of control

COC(Cc1ccccc1)(c1ccccc1)c1ccccc1
inactive: [14] 95 % of control | [15] 102 % of control | [16] 91 % of control

O=S1CCCCO1 (stereo not drawn)
inactive: dose: 75.0 mg/kg/injection, schedule: Q04DX003 (ip), vehicle: saline 95 % of control | dose: 150.0 mg/kg/injection, schedule: Q04DX003 (ip), vehicle: saline 101 % of control

CCCCCCCCCCCCCCCC(=O)Nc1ccc2c(c1)[nH]c(=O)c1cc(NC(=O)CCCCCCCCCCCCCCC)ccc12
inactive: [14] 98 % of control | [15] 111 % of control | [16] 102 % of control

c1nc[nH]n1
inactive: [11] 98 % of control | [18] 95 % of control | [12] 98 % of control | [19] 97 % of control | [17] 93 % of control | [20] 100 % of control

NC(=O)CCC(NC(=O)c1cnc2ccccc2n1)C(=O)O (stereo not drawn)
inactive: dose: 100.0 mg/kg/injection, schedule: Q01DX001 (ip), vehicle: saline 97 % of control | [18] 105 % of control | dose: 200.0 mg/kg/injection, schedule: Q01DX001 (ip), vehicle: saline 97 % of control | [19] 100 % of control | dose: 400.0 mg/kg/injection, schedule: Q01DX001 (ip), vehicle: saline 95 % of control | [20] 102 % of control

Cc1c(C(=O)O)cc([N+](=O)[O-])cc1[N+](=O)[O-]
inactive: [4] 102 % of control | [6] 100 % of control | [10] 96 % of control

S=C([S-])N1CCCCC1.S=C([S-])N1CCCCC1.[Zn]
inactive: dose: 18.8 mg/kg/injection, schedule: Q01DX009 (ip), vehicle: saline 93 % of control | dose: 37.5 mg/kg/injection, schedule: Q01DX009 (ip), vehicle: saline 90 % of control

Cc1c(C)c2c(c(C)c1O)CCC(C)(CCCC(C)CCCC(C)CCCC(C)C)O2 (stereo not drawn)
inactive: [4] 101 % of control | [6] 95 % of control | [9] 98 % of control | [10] 101 % of control | dose: 800.0 mg/kg/injection, schedule: Q01DX009 (ip), vehicle: Klucel (hydroxypropylcellulose) (HPC) 96 % of control | dose: 1200.0 mg/kg/injection, schedule: Q01DX009 (ip), vehicle: Klucel (hydroxypropylcellulose) (HPC) 96 % of control | dose: 1600.0 mg/kg/injection, schedule: Q01DX009 (ip), vehicle: Klucel (hydroxypropylcellulose) (HPC) 90 % of control

O=C(CCNC(=O)OCc1ccccc1)NC(CSCc1ccccc1)C(=O)O (stereo not drawn)
inactive: dose: 25.0 mg/kg/injection, schedule: Q01DX005 (ip), vehicle: water 101 % of control | dose: 50.0 mg/kg/injection, schedule: Q01DX005 (ip), vehicle: water 106 % of control | dose: 100.0 mg/kg/injection, schedule: Q01DX005 (ip), vehicle: water 101 % of control | dose: 200.0 mg/kg/injection, schedule: Q01DX005 (ip), vehicle: water 108 % of control
